In US8987195B2 (priority 2012, dated 2015):

Biological target: HCV NS3/4A protease genotype 1b (Hepatitis C virus genotype 1b, UniProt P26663)
Assay: HCV NS3/4A protease time-resolved fluorescence (TRF) assay, Ki against genotype 1b
Assay type: biochemical
Protocol: Measuring NS3/4A Inhibitory Activity (Ki) Against Genotype 1b, Against A156T Mutants and Against Genotype 3a
One assay for measuring inhibitory activity is HCV NS3 protease time-resolved fluorescence (TRF) assay as described below and in Mao et al., Anal. Biochem. 373:1-8, 2008 and International Patent Application Publication WO 2006/102087. A NS3 protease assay can be performed, for example, in a final volume of 20 μl assay buffer containing 50 mM HEPES, pH 7.5, 150 mM NaCl, 15% glycerol, 0.15% TRITON X-100, 10 mM DTT, and 0.1% PEG 8000. NS3 and NS4A protease is pre-incubated with various concentrations of inhibitors in DMSO for 30 min. The reaction is initiated by adding the TRF peptide substrate (final concentration 25 nM). NS3 mediated hydrolysis of the substrate was run for 2.5 hours at room temperature. Product fluorescence is detected using A Pherastar Plus plate reader (BMG) or Envision (Perkin Elmer Life and Analytical Sciences with excitation at 340 nm and emission at 615 nm using the appropriate delay time optimized for the europium fluorescence probe. Testing concentrations of different enzyme forms are selected to result in a signal to background ratio (S/B) of 10-30. IC50 values are derived using a standard four-parameter fit to the data. Ki values are derived from IC50 values using the following formula, IC50=Ki(1+[S]/KM), Eqn (1), where [S] is the concentration of substrate peptide in the reaction and KM is the Michaelis constant. See P. Gallinari et al., 38 BIOCHEM. 5620-32 (1999); P. Gallinari et al., 72 J. VIROL. 6758-69 (1998); M. Taliani et al., 240 ANAL. BIOCHEM. 60-67 (1996); Mao et al., Analytical Biochemistry 373: 1-8, 2008.
The assay described above was run against genotype 1b at a concentration of 0.2 nM, against A156T mutant strains at a concentration of 0.4 nM, and against genotype 3a at a concentration of 0.025 nM.

[1] = IC50 [gt-1b], NS3/4A protease TRF assay, genotype 1b enzyme 0.2 nM
[2] = IC50 [gt-1b] (nM), NS3/4A genotype 1b, enzyme 0.2 nM
[3] = IC50 [gt-1b], NS3/4A protease TRF assay, genotype 1b enzyme 0.2 nM, K+ salt

SMILES: COc1cc(Cl)c2nc(C(F)(F)F)c3c(c2c1)CC[C@]1(C[C@H]2C(=O)N[C@]4(C(=O)NS(=O)(=O)C5(C)CC5)C[C@H]4/C=C\CCCCC[C@H](NC(=O)OC(C)(C)C(F)(F)F)C(=O)N2C1)O3 [Example 400, 1,1,1-trifluoro-2-methylpropan-2-yl [(2R,6S,12Z,13aS,14aR,16aS)-7′-chloro-9′-methoxy-14a-{[(1-methylcyclopropyl)sulfonyl]carbamoyl}-5,16-dioxo-5′-(trifluoromethyl)-1,1′,2′,5,6,7,8,9,10,11,13a,14,14a,15,16,16a-hexadecahydrospiro[cyclopropa[e]pyrrolo[1,2-a][1,4]diazacyclopentadecine-2,3′-pyrano[2,3-c]quinolin]-6-yl]carbamate]
- IC50 [1]: 0.052 nM

SMILES: Cc1nc2ccccc2c2c1O[C@]1(CC2)C[C@H]2C(=O)N[C@]3(C(=O)NS(=O)(=O)C4(C)CC4)C[C@H]3/C=C\CCCCC[C@H](NC(=O)OC3CCN(C)CC3)C(=O)N2C1 [Example 117, 1-methylpiperidin-4-yl [(2R,6S,12Z,13aS,14aR,16aS)-5′-methyl-14a-{[(1-methylcyclopropyl)sulfonyl]carbamoyl}-5,16-dioxo-1,1′,2′,5,6,7,8,9,10,11,13a,14,14a,15,16,16a-hexadecahydrospiro[cyclopropa[e]pyrrolo[1,2-a][1,4]diazacyclopentadecine-2,3′-pyrano[2,3-c]quinolin]-6-yl]carbamate]
- IC50 [2]: 0.056 nM

SMILES: CCc1nc2ccc(OCCCN3CCOCC3)cc2c2c1O[C@]1(CC2)C[C@H]2C(=O)N[C@]3(C(=O)NS(=O)(=O)C4(C)CC4)C[C@H]3/C=C\CCCCC[C@H](NC(=O)OCC(C)(C)C)C(=O)N2C1 [Example 521, 2,2-dimethylpropyl {(2R,6S,12Z,13aS,14aR,16aS)-5′-ethyl-14a-{[(1-methylcyclopropyl)sulfonyl]carbamoyl}-9′-[3-(morpholin-4-yl)propoxy]-5,16-dioxo-1,1′,2′,5,6,7,8,9,10,11,13a,14,14a,15,16,16a-hexadecahydrospiro[cyclopropa[e]pyrrolo[1,2-a][1,4]diazacyclopentadecine-2,3′-pyrano[2,3-c]quinolin]-6-yl}carbamate]
- IC50 (IC50 [gt-1b], NS3/4A protease TRF assay, genotype 1b enzyme 0.2 nM, HCl salt): 0.004 nM

SMILES: COc1ccc2nc(C(F)F)c3c(c2c1)CC[C@]1(C[C@H]2C(=O)N[C@]4(C(=O)NS(=O)(=O)C5(C)CC5)C[C@H]4/C=C\CCCCC[C@H](NC(=O)OC4CCC4)C(=O)N2C1)O3 [Example 508, cyclobutyl [(2R,6S,12Z,13aS,14aR,16aS)-5′-(difluoromethyl)-9′-methoxy-14a-{[(1-methylcyclopropyl)sulfonyl]carbamoyl}-5,16-dioxo-1,1′,2′,5,6,7,8,9,10,11,13a,14,14a,15,16,16a-hexadecahydrospiro[cyclopropa[e]pyrrolo[1,2-a][1,4]diazacyclopentadecine-2,3′-pyrano[2,3-c]quinolin]-6-yl]carbamate]
- IC50 [3]: 0.004 nM

SMILES: CCc1nc2ccc(OCCN3CCOCC3)cc2c2c1O[C@]1(CC2)C[C@H]2C(=O)N[C@]3(C(=O)NS(=O)(=O)C4(C)CC4)C[C@H]3/C=C\CCCCC[C@H](NC(=O)OC3(C)CCC3)C(=O)N2C1 [Example 509, 1-methylcyclobutyl {(2R,6S,12Z,13aS,14aR,16aS)-5′-ethyl-14a-{[(1-methylcyclopropyl)sulfonyl]carbamoyl}-9′-[2-(morpholin-4-yl)ethoxy]-5,16-dioxo-1,1′,2′,5,6,7,8,9,10,11,13a,14,14a,15,16,16a-hexadecahydrospiro[cyclopropa[e]pyrrolo[1,2-a][1,4]diazacyclopentadecine-2,3′-pyrano[2,3-c]quinolin]-6-yl}carbamate]
- IC50 [3]: 0.006 nM

SMILES: Cc1nc2ccccc2c2c1O[C@]1(CC2)C[C@H]2C(=O)N[C@]3(C(=O)NS(=O)(=O)C4(C)CC4)C[C@H]3/C=C\CCCCC[C@H](Nc3nc(C4CC4)no3)C(=O)N2C1 [Example 394, (2R,6S,12Z,13aS,14aR,16aS)-6-[(3-cyclopropyl-1,2,4-oxadiazol-5-yl)amino]-5′-methyl-N-[(1-methylcyclopropyl)sulfonyl]-5,16-dioxo-1,1′,2′,6,7,8,9,10,11,13a,14,15,16,16a-tetradecahydrospiro[cyclopropa[e]pyrrolo[1,2-a][1,4]diazacyclopentadecine-2,3′-pyrano[2,3-c]quinoline]-14a(5H)-carboxamide]
- IC50 [1]: 0.057 nM

SMILES: COc1ccc2nc(C3CC3)c3c(c2c1)C(F)(F)C[C@]1(C[C@H]2C(=O)N[C@]4(C(=O)NS(=O)(=O)C5(C)CC5)C[C@H]4/C=C\CCCCC[C@H](NC(=O)OC4CCCC4)C(=O)N2C1)O3 [Example 247, cyclopentyl [(2S,6S,12Z,13aS,14aR,16aS)-5′-cyclopropyl-1′,1′-difluoro-9′-methoxy-14a-{[(1-methylcyclopropyl)sulfonyl]carbamoyl}-5,16-dioxo-1,1′,2′,5,6,7,8,9,10,11,13a,14,14a,15,16,16a-hexadecahydrospiro[cyclopropa[e]pyrrolo[1,2-a][1,4]diazacyclopentadecine-2,3′-pyrano[2,3-c]quinolin]-6-yl]carbamate]
- IC50 [2]: 0.013 nM

SMILES: CCc1nc2ccc(OCCN3CCOCC3)cc2c2c1O[C@]1(CC2)C[C@H]2C(=O)N[C@]3(C(=O)NS(=O)(=O)C4(C)CC4)C[C@H]3/C=C\CCCCC[C@H](NC(=O)OCC(C)(C)C)C(=O)N2C1 [Example 510, 2,2-dimethylpropyl {(2R,6S,12Z,13aS,14aR,16aS)-5′-ethyl-14a-{[(1-methylcyclopropyl)sulfonyl]carbamoyl}-9′-[2-(morpholin-4-yl)ethoxy]-5,16-dioxo-1,1′,2′,5,6,7,8,9,10,11,13a,14,14a,15,16,16a-hexadecahydrospiro[cyclopropa[e]pyrrolo[1,2-a][1,4]diazacyclopentadecine-2,3′-pyrano[2,3-c]quinolin]-6-yl}carbamate]
- IC50 [3]: 0.004 nM

SMILES: Cc1ccc2nc(C(F)(F)F)c3c(c2c1)CC[C@]1(C[C@H]2C(=O)N[C@]4(C(=O)NS(=O)(=O)C5(C)CC5)C[C@H]4/C=C\CCCCC[C@H](NC(=O)OC4CCCC4)C(=O)N2C1)O3 [Example 392, cyclopentyl [(2R,6S,12Z,13aS,14aR,16aS)-9′-methyl-14a-{[(1-methylcyclopropyl)sulfonyl]carbamoyl}-5,16-dioxo-5′-(trifluoromethyl)-1,1′,2′,5,6,7,8,9,10,11,13a,14,14a,15,16,16a-hexadecahydrospiro[cyclopropa[e]pyrrolo[1,2-a][1,4]diazacyclopentadecine-2,3′-pyrano[2,3-c]quinolin]-6-yl]carbamate]
- IC50 [1]: 0.014 nM

SMILES: COc1ccc2nc(C(F)(F)F)c3c(c2c1)OC[C@]1(C[C@H]2C(=O)N[C@]4(C(=O)NS(=O)(=O)C5(C)CC5)C[C@H]4/C=C\CCCCC[C@H](NC(=O)OC(C)(C)C)C(=O)N2C1)O3 [Example 8, tert-Butyl ((2′R,6′S,13a′S,14a′R,16a′S,Z)-9-methoxy-14a′-(((1-methylcyclopropyl)sulfonyl)carbamoyl)-5′,16′-dioxo-5-(trifluoromethyl)-3′,5′,6′,7′,8′,9′,10′,11′, 13a′,14′,14a′,15′,16′,16a′-tetradecahydro-1H,2H-spiro[[1,4]dioxino[2,3-c]quinoline-3,2′-cyclopropa[e]pyrrolo[1,2-a][1,4]diazacyclopentadecin]-6′-yl)carbamate]
- IC50 [2]: 0.011 nM

SMILES: COCCCOc1ccc2nc(C(F)(F)F)c3c(c2c1)CC[C@]1(C[C@H]2C(=O)N[C@]4(C(=O)NS(=O)(=O)C5(C)CC5)C[C@H]4/C=C\CCCCC[C@H](NC(=O)OC4(C)CCC4)C(=O)N2C1)O3 [Example 523, 1-methylcyclobutyl [(2R,6S,12Z,13aS,14aR,16aS)-9′-(3-methoxypropoxy)-14a-{[(1-methylcyclopropyl)sulfonyl]carbamoyl}-5,16-dioxo-5′-(trifluoromethyl)-1,1′,2′,5,6,7,8,9,10,11,13a,14,14a,15,16,16a-hexadecahydrospiro[cyclopropa[e]pyrrolo[1,2-a][1,4]diazacyclopentadecine-2,3′-pyrano[2,3-c]quinolin]-6-yl]carbamate]
- IC50 [3]: 0.009 nM

SMILES: COc1ccc2nc(C)c3c(c2c1)CC[C@]1(C[C@H]2C(=O)N[C@]4(C(=O)NS(=O)(=O)C5(C)CC5)C[C@H]4/C=C\CCCCC[C@H](NC(=O)OCC4CCC4)C(=O)N2C1)O3 [Example 213, cyclobutylmethyl [(2R,6S,12Z,13aS,14aR,16aS)-9′-methoxy-5′-methyl-14a-{[(1-methylcyclopropyl)sulfonyl]carbamoyl}-5,16-dioxo-1,1′,2′,5,6,7,8,9,10,11,13a,14,14a,15,16,16a-hexadecahydrospiro[cyclopropa[e]pyrrolo[1,2-a][1,4]diazacyclopentadecine-2,3′-pyrano[2,3-c]quinolin]-6-yl]carbamate]
- IC50 (IC50 [gt-1b] (nM), NS3/4A genotype 1b, enzyme 0.2 nM, K+ salt): 0.004 nM
